Here are results for one molecule from patent US5141962A, “Amine compounds” (Roussel Uclaf, priority 1989, dated 1992).

In test [1] the test system is female mice. Kind of test: Antagonist effect vis-a-vis the analgesic activity of U-50488, hot plate test with mice. It counts as in vivo, mouse. The following applies: hot plate 56° C., product of Example 1 20 mg/kg SC, U-50488 5 mg/kg SC, combination 5 + 20. (In general: In hot-plate and tail-flick tests a longer latency is read as antinociception.)
For test [2], the target named is T1, mu opiate receptor (Rattus norvegicus, UniProt P33535).
T1 construct: from the brains of rats were used; from tissue; host or cells: rat brain membranes
Kind of test: Test of bonding to the mu opiate receptor in vitro (3H DAGO). It counts as binding. The following applies: rat brain membranes, 1 nM 3H DAGO, 25° C. 40 minutes, pH 7.7 Tris buffer; read-out: IC50, displacement of 3H DAGO from mu opiate receptor. (In a radioligand displacement assay an active substance lowers the binding of a labelled ligand.)

The target of test [3] is T2, dopamine receptor (Rattus norvegicus, UniProt P61169).
T2 construct: prepared from the striated bodies of rats were used; from tissue; host or cells: rat striatum membranes
Kind of test: Test of bonding to the dopamine receptor in vitro (3H spiroperidol). The following applies: rat striated bodies membranes, 0.15 nM 3H spiroperidol, pH 7.25 Krebs Tris buffer; read-out: IC50, displacement of 3H spiroperidol from dopamine receptor. It counts as binding.
Protocol: (optionally for about 30 days) and prepared from the striated bodies of rats were used. The samples were suspended in pH 7.25 Krebs Tris buffer. […] The product was first tested at 5×10^-6 M, in triplicate. […] Incubation took place at 27° C. for 20 minutes, followed by returning to the water bath at 0° C. for 5 minutes, then vacuum filtering, rinsing with pH 7.7 Tris buffer, and the radioactivity was counted in the presence of a Triton scintillator.

In test [4] the test system is male rats. Kind of test: Antagonist effect vis-a-vis the diuretic activity of U-50488, action on diuresis. It counts as in vivo, rat. The following applies: male rats fasted 16 h; product of Example 1 20 mg/kg SC, U-50488 5 mg/kg, combination 5 + 20 mg/kg; urine collected for one hour.
Test [5] has as its target T3, kappa opiate receptor (Cavia porcellus, UniProt P41144).
T3 construct: Membrane samples prepared from the cerebellum of guinea pigs; from tissue; host or cells: guinea pig cerebellum membranes
The test can be described thus: Test for distinction between agonist and antagonist on the kappa opiate receptor (3H diprenorphine, with or without NaCl and GTP). It counts as binding, guinea pig. The following applies: for IC50: guinea pig cerebellum membranes, 0.3 nM 3H diprenorphine.

In test [6] the target is T3, kappa opiate receptor. The test can be described thus: Test of the bonding to the kappa opiate receptor in vitro (3H ethylketocyclazocine). It counts as binding, guinea pig. As to the method:
a) Test of the bonding to the kappa opiate receptor in vitro
Membrane samples prepared from the cerebellum of guinea pigs preserved at -30° C. (optionally for about 30 days) were used.
These samples were suspended in pH 7.7 Tris buffer. Fractions of 2 ml were allocated into hemolysis tubes and 1 nM of 3H ethylketocyclazocine and the product to be studied were added. The product was first tested in triplicate at 5×10^-6 M. When the tested product displaced more than 50% of the radioactivity bonded specifically to the receptor, it was tested again according to a range of 7 doses to determine the dose which inhibited 50% of the radioactivity bonded specifically to the receptor. Thus, the 50% inhibiting concentration was determined.
The non-specific bonding was determined by the addition of product known under the name U-50 488 H (Lahti et al. 1982, Life Sci. Vol. 31, p. 2257) at 10^-5 M in triplicate. Incubation took place at 25° C. for 40 minutes, followed by returning to the water bath at 0° C. for 5 minutes, then vacuum filtering, rinsing with pH 7.7 Tris buffer, and the radioactivity was counted in the presence of a Triton scintillator. The result was expressed directly as the 50% inhibiting concentration (IC50), that is to say as the concentration of studied product, expressed in nM, necessary to displace 50% of the radioactivity specifically bonded to the studied receptor.

Structures are written as SMILES.

T3 sequence (P41144 whole entry): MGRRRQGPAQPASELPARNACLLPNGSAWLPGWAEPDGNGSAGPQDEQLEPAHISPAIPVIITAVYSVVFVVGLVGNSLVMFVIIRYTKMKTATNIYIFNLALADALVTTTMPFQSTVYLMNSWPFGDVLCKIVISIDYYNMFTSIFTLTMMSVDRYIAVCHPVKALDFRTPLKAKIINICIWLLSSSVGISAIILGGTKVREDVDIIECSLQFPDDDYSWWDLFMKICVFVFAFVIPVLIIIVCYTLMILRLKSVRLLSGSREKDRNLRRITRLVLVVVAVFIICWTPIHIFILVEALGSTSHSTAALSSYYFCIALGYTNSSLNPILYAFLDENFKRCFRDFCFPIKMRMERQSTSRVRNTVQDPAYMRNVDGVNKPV
T1 sequence (P33535 whole entry): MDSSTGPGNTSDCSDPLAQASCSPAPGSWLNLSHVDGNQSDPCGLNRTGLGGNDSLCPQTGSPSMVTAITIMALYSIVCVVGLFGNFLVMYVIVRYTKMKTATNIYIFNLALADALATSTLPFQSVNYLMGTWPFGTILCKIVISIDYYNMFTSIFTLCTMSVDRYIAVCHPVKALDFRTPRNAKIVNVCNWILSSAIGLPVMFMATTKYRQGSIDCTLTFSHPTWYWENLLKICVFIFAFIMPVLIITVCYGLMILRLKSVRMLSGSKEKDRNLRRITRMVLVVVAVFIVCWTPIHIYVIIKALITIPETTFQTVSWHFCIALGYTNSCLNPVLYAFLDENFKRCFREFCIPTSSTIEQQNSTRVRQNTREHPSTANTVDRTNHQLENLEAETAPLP
T2 sequence (P61169 whole entry): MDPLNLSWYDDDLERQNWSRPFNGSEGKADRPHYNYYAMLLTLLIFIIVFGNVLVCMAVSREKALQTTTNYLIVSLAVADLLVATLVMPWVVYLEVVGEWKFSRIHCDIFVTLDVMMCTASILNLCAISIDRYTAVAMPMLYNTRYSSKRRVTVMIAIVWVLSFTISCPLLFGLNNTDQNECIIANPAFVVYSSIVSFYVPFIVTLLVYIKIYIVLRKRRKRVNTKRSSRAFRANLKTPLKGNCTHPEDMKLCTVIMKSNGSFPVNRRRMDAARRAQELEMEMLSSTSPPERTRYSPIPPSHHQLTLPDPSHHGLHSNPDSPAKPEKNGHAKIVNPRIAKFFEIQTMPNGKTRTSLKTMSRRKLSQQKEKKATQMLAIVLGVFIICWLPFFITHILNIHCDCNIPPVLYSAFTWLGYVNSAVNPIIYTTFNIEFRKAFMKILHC

A word on the IC50: it is the point on the concentration scale where inhibition reaches its midpoint. With `CCCCCN(CCc1ccccc1)CCc1cccc(O)c1` [Product of example 1, N-pentyl-N-phenethyl-3-hydroxyphenethylamine], the “Reaction time, m ± esm, 30 mn” value in test [1] (30 minutes after injection) amounted to 4.7 ± 0.6 s. The “Reaction time, m ± esm, 0 mn” value in test [1] (initial time (0 mn)) is given as 5.1 ± 0.1 s. Further, the IC50 in test [2] is 840 nM; in test [3], 10600 nM; in test [5] (NaCl 100 mM, GTP 50 uM, read-out: IC50 in the presence of GTP and NaCl), 135 nM; in test [5] (without NaCl and GTP, read-out: IC50 in the absence of GTP and NaCl), 43 nM; in test [6] (guinea pig cerebellum membranes, 1 nM 3H ethylketocyclazocine, 25° C. 40 minutes, pH 7.7 Tris buffer, read-out: IC50, displacement of 3H ethylketocyclazocine from kappa opiate receptor) it was 57 nM. The “Volume of urine excreted in 1 hour, m ± esm” value in test [4] was 0.0067 ± 0.0002 L/kg. Also, the “Agonist or antagonist character on the kappa receptor” value in test [5] (conclusion from IC50 with and without NaCl/GTP) is reported as “antagonist product of the kappa receptor”. Moreover, the “Affinity for kappa, mu and dopamine receptors (conclusion)” value in test [6] (conclusion from the kappa, mu and dopamine bonding tests) is reported as “only has an affinity for the kappa opiate receptor”.
